From PubChem BioAssay AID248 (DTP/NCI, 2004)
Several values for one entry are separate records, joined by “and”; a condition that tells them apart may be missing. Equal values may be shown once. Toxic doses and inconclusive results are not listed.

Test system: L1210 leukemia ip in BDF1 mice, survival T/C
Assay: NCI In Vivo Anticancer Drug Screen. Data for tumor model L1210 Leukemia (intraperitoneal) in B6D2F1 (BDF1) mice
Details: endpoint: mean survival time, higher = longer survival
Summary of the method: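 In this screen, tumor-bearing mice given compound are compared to those given vehicle, and their survival values are reported as a treated-to-control quotient.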

[1] = dose: 100.0 mg/kg/injection, schedule: Q04DX003 (ip), vehicle: Klucel (hydroxypropylcellulose) (HPC)
[2] = dose: 200.0 mg/kg/injection, schedule: Q04DX003 (ip), vehicle: Klucel (hydroxypropylcellulose) (HPC)
[3] = dose: 50.0 mg/kg/injection, schedule: Q01DX009 (ip), vehicle: saline
[4] = dose: 100.0 mg/kg/injection, schedule: Q01DX009 (ip), vehicle: saline
[5] = dose: 200.0 mg/kg/injection, schedule: Q01DX009 (ip), vehicle: saline
[6] = dose: 100.0 mg/kg/injection, schedule: Q01DX001 (ip), vehicle: Klucel (hydroxypropylcellulose) (HPC)
[7] = dose: 200.0 mg/kg/injection, schedule: Q01DX001 (ip), vehicle: Klucel (hydroxypropylcellulose) (HPC)
[8] = dose: 400.0 mg/kg/injection, schedule: Q01DX001 (ip), vehicle: Klucel (hydroxypropylcellulose) (HPC)
[9] = dose: 12.5 mg/kg/injection, schedule: Q01DX009 (ip), vehicle: saline with Tween-80
[10] = dose: 25.0 mg/kg/injection, schedule: Q01DX009 (ip), vehicle: saline with Tween-80

For NC(CCSSCCC(N)C(=O)O)C(=O)O (stereo not drawn), the T/C (dose: 12.5 mg/kg/injection, schedule: Q04DX002 (ip), vehicle: Klucel (hydroxypropylcellulose) (HPC)) was 113 % of control, the T/C (dose: 25.0 mg/kg/injection, schedule: Q04DX002 (ip), vehicle: Klucel (hydroxypropylcellulose) (HPC)) was 97 % of control and the T/C (dose: 50.0 mg/kg/injection, schedule: Q04DX002 (ip), vehicle: Klucel (hydroxypropylcellulose) (HPC)) was 103 % of control. The T/C [1] was 93 % of control, the T/C [2] was 101 % of control and the T/C (dose: 400.0 mg/kg/injection, schedule: Q04DX003 (ip), vehicle: Klucel (hydroxypropylcellulose) (HPC)) was 93 % of control.
With S=c1cc(-c2ccc(Cl)cc2)ss1 the T/C [3] was 93 % of control, the T/C [4] was 93 % of control and 90 % of control and the T/C (dose: 100.0 mg/kg/injection, schedule: Q04DX003 (ip), vehicle: saline) was 92 % of control. For the same compound, the T/C [5] was 95 % of control and 90 % of control, the T/C (dose: 200.0 mg/kg/injection, schedule: Q04DX003 (ip), vehicle: saline) was 100 % of control and the T/C (dose: 300.0 mg/kg/injection, schedule: Q01DX009 (ip), vehicle: saline) was 95 % of control. The T/C (dose: 400.0 mg/kg/injection, schedule: Q01DX009 (ip), vehicle: saline) was 95 % of control.
With CCOC(=O)/C=C(\C)N(C(=O)N(CCCl)N=O)c1ccccc1 the T/C (dose: 0.12 mg/kg/injection, schedule: Q01DX009 (ip), vehicle: Klucel (hydroxypropylcellulose) (HPC)) was 118 % of control, the T/C (dose: 0.5 mg/kg/injection, schedule: Q01DX009 (ip), vehicle: Klucel (hydroxypropylcellulose) (HPC)) was 159 % of control and the T/C (dose: 1.0 mg/kg/injection, schedule: Q01DX001 (ip), vehicle: carboxymethylcellulose (CMC)) was 103 % of control. The T/C (dose: 1.0 mg/kg/injection, schedule: Q01DX009 (ip), vehicle: Klucel (hydroxypropylcellulose) (HPC)) was 232 % of control, the T/C (dose: 2.0 mg/kg/injection, schedule: Q01DX001 (ip), vehicle: carboxymethylcellulose (CMC)) was 103 % of control and 119 % of control and the T/C (dose: 4.0 mg/kg/injection, schedule: Q01DX001 (ip), vehicle: carboxymethylcellulose (CMC)) was 109 % of control. For the same compound, the T/C (dose: 6.0 mg/kg/injection, schedule: Q01DX009 (ip), vehicle: carboxymethylcellulose (CMC)) was 161 % of control, the T/C (dose: 8.0 mg/kg/injection, schedule: Q01DX001 (ip), vehicle: carboxymethylcellulose (CMC)) was 104 % of control and the T/C (dose: 8.8 mg/kg/injection, schedule: Q01DX009 (ip), vehicle: carboxymethylcellulose (CMC)) was 163 % of control. The T/C (dose: 13.0 mg/kg/injection, schedule: Q01DX009 (ip), vehicle: Klucel (hydroxypropylcellulose) (HPC)) was 120 % of control, the T/C (dose: 13.3 mg/kg/injection, schedule: Q01DX009 (ip), vehicle: carboxymethylcellulose (CMC)) was 121 % of control and the T/C (dose: 15.0 mg/kg/injection, schedule: Q01DX001 (ip), vehicle: carboxymethylcellulose (CMC)) was 153 % of control. The T/C (dose: 20.0 mg/kg/injection, schedule: Q01DX009 (ip), vehicle: carboxymethylcellulose (CMC)) was 110 % of control, the T/C (dose: 30.0 mg/kg/injection, schedule: Q01DX001 (ip), vehicle: carboxymethylcellulose (CMC)) was 104 % of control and 231 % of control and 86 % of control and the T/C (dose: 30.0 mg/kg/injection, schedule: Q01DX009 (ip), vehicle: Klucel (hydroxypropylcellulose) (HPC)) was 90 % of control. For the same compound, the T/C (dose: 30.0 mg/kg/injection, schedule: Q01DX009 (ip), vehicle: carboxymethylcellulose (CMC)) was 100 % of control, the T/C (dose: 45.0 mg/kg/injection, schedule: Q01DX001 (ip), vehicle: carboxymethylcellulose (CMC)) was 155 % of control and the T/C (dose: 60.0 mg/kg/injection, schedule: Q01DX001 (ip), vehicle: carboxymethylcellulose (CMC)) was 109 % of control and 204 % of control. For the same compound, the T/C (dose: 120.0 mg/kg/injection, schedule: Q01DX001 (ip), vehicle: carboxymethylcellulose (CMC)) was 114 % of control.
With CC(=O)OC1CCC2(C)C(=CC=C3C2CCC2(C)C(C(C)=O)CCC32)C1 (stereo not drawn) the T/C (dose: 100.0 mg/kg/injection, schedule: Q04DX002 (ip), vehicle: Klucel (hydroxypropylcellulose) (HPC)) was 86 % of control, the T/C (dose: 200.0 mg/kg/injection, schedule: Q04DX002 (ip), vehicle: Klucel (hydroxypropylcellulose) (HPC)) was 110 % of control and the T/C (dose: 400.0 mg/kg/injection, schedule: Q04DX002 (ip), vehicle: Klucel (hydroxypropylcellulose) (HPC)) was 104 % of control.
NC(=O)Nc1cc(NC(N)=O)cc(N(CCO)CCO)c1 was tested, and the T/C (dose: 100.0 mg/kg/injection, schedule: Q01DX009 (ip), vehicle: water) was 97 % of control, the T/C (dose: 100.0 mg/kg/injection, schedule: Q04DX003 (ip), vehicle: water) was 102 % of control and the T/C (dose: 200.0 mg/kg/injection, schedule: Q01DX009 (ip), vehicle: water) was 97 % of control. The T/C (dose: 200.0 mg/kg/injection, schedule: Q04DX003 (ip), vehicle: water) was 102 % of control, the T/C (dose: 400.0 mg/kg/injection, schedule: Q01DX009 (ip), vehicle: water) was 103 % of control and the T/C (dose: 400.0 mg/kg/injection, schedule: Q04DX003 (ip), vehicle: water) was 104 % of control.
For CC(=S)SCC(C)C, the T/C (dose: 50.0 mg/kg/injection, schedule: Q01DX001 (ip), vehicle: carboxymethylcellulose (CMC)) was 101 % of control, the T/C (dose: 100.0 mg/kg/injection, schedule: Q01DX001 (ip), vehicle: carboxymethylcellulose (CMC)) was 101 % of control and the T/C (dose: 200.0 mg/kg/injection, schedule: Q01DX001 (ip), vehicle: carboxymethylcellulose (CMC)) was 104 % of control. For the same compound, the T/C (dose: 400.0 mg/kg/injection, schedule: Q01DX001 (ip), vehicle: carboxymethylcellulose (CMC)) was 93 % of control.
For C=C1C(=O)OC2CC/C=C\CCC12 (stereo not drawn), the T/C [3] was 95 % of control, the T/C [4] was 103 % of control and the T/C [5] was 95 % of control.
Cc1c(N)c(C)c(F)c(-c2c(N)c(C)c(N)c(C)c2F)c1N was tested, and the T/C [6] was 92 % of control, the T/C [7] was 97 % of control and the T/C [8] was 104 % of control.
For CC(=O)Nc1cc2ccc3ccccc3c2c2ccccc12, the T/C (dose: 75.0 mg/kg/injection, schedule: Q04DX002 (ip), vehicle: Klucel (hydroxypropylcellulose) (HPC)) was 102 % of control, the T/C (dose: 150.0 mg/kg/injection, schedule: Q04DX002 (ip), vehicle: Klucel (hydroxypropylcellulose) (HPC)) was 97 % of control and the T/C (dose: 300.0 mg/kg/injection, schedule: Q04DX002 (ip), vehicle: Klucel (hydroxypropylcellulose) (HPC)) was 97 % of control.
CCCCCCCCCCCCOC(=O)C[n+]1cccc(C(=O)NCc2ccccc2)c1 was tested, and the T/C (dose: 6.25 mg/kg/injection, schedule: Q01DX009 (ip), vehicle: saline with Tween-80) was 98 % of control, the T/C [9] was 94 % of control and the T/C [10] was 102 % of control.
With NC(=S)NN=C1CCSCC1 the T/C (dose: 8.4 mg/kg/injection, schedule: Q01DX Z (ip), vehicle: methylcellulose (MC)) was 96 % of control, the T/C (dose: 14.0 mg/kg/injection, schedule: Q01DX Z (ip), vehicle: methylcellulose (MC)) was 92 % of control and the T/C (dose: 23.0 mg/kg/injection, schedule: Q01DX Z (ip), vehicle: methylcellulose (MC)) was 98 % of control. For the same compound, the T/C (dose: 39.0 mg/kg/injection, schedule: Q01DX Z (ip), vehicle: methylcellulose (MC)) was 98 % of control.
In the case of O=c1sc2ccccc2n1-c1ccccc1, the T/C [1] is reported as 96 % of control and the T/C [2] is reported as 93 % of control.
CCCCCC1(O)C2CCCC1CCC2 (stereo not drawn) was tested, and the T/C (dose: 100.0 mg/kg/injection, schedule: Q04DX003 (ip), vehicle: saline with Tween-80) was 94 % of control, the T/C (dose: 200.0 mg/kg/injection, schedule: Q04DX003 (ip), vehicle: saline with Tween-80) was 97 % of control and the T/C (dose: 400.0 mg/kg/injection, schedule: Q04DX003 (ip), vehicle: saline with Tween-80) was 105 % of control.
For Cc1nc2c(O)ccc(O)c2nc1C, the T/C (dose: 3.12 mg/kg/injection, schedule: Q04DX003 (ip), vehicle: saline with Tween-80) was 100 % of control, the T/C (dose: 6.25 mg/kg/injection, schedule: Q04DX003 (ip), vehicle: saline with Tween-80) was 96 % of control and the T/C [9] was 94 % of control. The T/C (dose: 12.5 mg/kg/injection, schedule: Q04DX003 (ip), vehicle: saline with Tween-80) was 100 % of control, the T/C [10] was 96 % of control and the T/C (dose: 50.0 mg/kg/injection, schedule: Q01DX009 (ip), vehicle: saline with Tween-80) was 94 % of control.
With Cc1ccc(-n2c(O)c(N=Nc3ccccc3C)c(=O)n(-c3ccc(Br)cc3)c2=S)cc1 the T/C (dose: 37.5 mg/kg/injection, schedule: Q01DX001 (ip), vehicle: Klucel (hydroxypropylcellulose) (HPC)) was 96 % of control, the T/C (dose: 75.0 mg/kg/injection, schedule: Q01DX001 (ip), vehicle: Klucel (hydroxypropylcellulose) (HPC)) was 101 % of control and the T/C (dose: 150.0 mg/kg/injection, schedule: Q01DX001 (ip), vehicle: Klucel (hydroxypropylcellulose) (HPC)) was 110 % of control.
For c1ccc2c(c1)NC1CCCCC21 (stereo not drawn), the T/C [6] was 90 % of control, the T/C [7] was 97 % of control and the T/C [8] was 93 % of control.
